Legend:
[1] = target: Centromere-associated protein E (Homo sapiens, UniProt Q02224, K184T); experiment: Binding affinity to human CENP-E K184T mutant assessed as inhibition constant
[2] = system: HOS; experiment: Anticancer activity against human HOS cells assessed as cell growth inhibition measured after 72 hrs by DAPI staining based analysis; format: functional
[3] = system: M14; experiment: Anticancer activity against human M14 cells assessed as cell growth inhibition measured after 72 hrs by DAPI staining based analysis; format: functional
[4] = system: NCI-H23; experiment: Anticancer activity against human NCI-H23 cells assessed as cell growth inhibition measured after 72 hrs by DAPI staining based analysis; format: functional
[5] = Anticancer activity against human NCI-H322T cells assessed as cell growth inhibition measured after 72 hrs by DAPI staining based analysis; format: functional
[6] = system: NCI-H526; experiment: Anticancer activity against human NCI-H526 cells assessed as cell growth inhibition measured after 72 hrs by DAPI staining based analysis; format: functional
[7] = system: NCI-H630; experiment: Anticancer activity against human NCI-H630 cells assessed as cell growth inhibition measured after 72 hrs by DAPI staining based analysis; format: functional
[8] = system: NCI-N87; experiment: Anticancer activity against human NCI-N87 cells assessed as cell growth inhibition measured after 72 hrs by DAPI staining based analysis; format: functional
[9] = system: RPMI-2650; experiment: Anticancer activity against human RPMI-2650 cells assessed as cell growth inhibition measured after 72 hrs by DAPI staining based analysis; format: functional
[10] = system: RXF 393; experiment: Anticancer activity against human RXF 393 cells assessed as cell growth inhibition measured after 72 hrs by DAPI staining based analysis; format: functional
[11] = Anticancer activity against human NL-SCLC3 cells assessed as cell growth inhibition measured after 72 hrs by DAPI staining based analysis; format: functional
[12] = system: SF-268; experiment: Anticancer activity against human SF-268 cells assessed as cell growth inhibition measured after 72 hrs by DAPI staining based analysis; format: functional
[13] = system: SH-4; experiment: Anticancer activity against human SH-4 cells assessed as cell growth inhibition measured after 72 hrs by DAPI staining based analysis; format: functional
[14] = Anticancer activity against human SKO-007 cells assessed as cell growth inhibition measured after 72 hrs by DAPI staining based analysis; format: functional
[15] = system: SNU1; experiment: Anticancer activity against human SNU1 cells assessed as cell growth inhibition measured after 72 hrs by DAPI staining based analysis; format: functional
[16] = system: SW837; experiment: Anticancer activity against human SW837 cells assessed as cell growth inhibition measured after 72 hrs by DAPI staining based analysis; format: functional
[17] = system: SW 954; experiment: Anticancer activity against human SW 954 cells assessed as cell growth inhibition measured after 72 hrs by DAPI staining based analysis; format: functional
[18] = system: T-24; experiment: Anticancer activity against human T24 cells assessed as cell growth inhibition measured after 72 hrs by DAPI staining based analysis; format: functional
[19] = system: U-251; experiment: Anticancer activity against human U-251 cells assessed as cell growth inhibition measured after 72 hrs by DAPI staining based analysis; format: functional
[20] = system: UMUC3; experiment: Anticancer activity against human UM-UC-3 cells assessed as cell growth inhibition measured after 72 hrs by DAPI staining based analysis; format: functional
[21] = system: A2780; experiment: Anticancer activity against human A2780 cells assessed as cell doubling measured for 72 hrs by DAPI staining based analysis; format: functional
[22] = system: BFTC-905; experiment: Anticancer activity against human BFTC-905 cells assessed as cell doubling measured for 72 hrs by DAPI staining based analysis; format: functional
[23] = system: BT-474; experiment: Anticancer activity against human BT-474 cells assessed as cell doubling measured for 72 hrs by DAPI staining based analysis; format: functional
[24] = system: CESS; experiment: Anticancer activity against human CESS cells assessed as cell doubling measured for 72 hrs by DAPI staining based analysis; format: functional
[25] = system: HCC 2998; experiment: Anticancer activity against human HCC 2998 cells assessed as cell doubling measured for 72 hrs by DAPI staining based analysis; format: functional
[26] = system: HCT-8; experiment: Anticancer activity against human HCT-8 cells assessed as cell doubling measured for 72 hrs by DAPI staining based analysis; format: functional
[27] = system: IGROV-1; experiment: Anticancer activity against human IGROV-1 cells assessed as cell doubling measured for 72 hrs by DAPI staining based analysis; format: functional
[28] = system: JEG-3; experiment: Anticancer activity against human JEG-3 cells assessed as cell doubling measured for 72 hrs by DAPI staining based analysis; format: functional
[29] = Anticancer activity against human KHOS-240S cells assessed as cell doubling measured for 72 hrs by DAPI staining based analysis; format: functional
[30] = system: LNCaP; experiment: Anticancer activity against human LNCaP cells assessed as cell doubling measured for 72 hrs by DAPI staining based analysis; format: functional
[31] = system: Malme-3M; experiment: Anticancer activity against human Malme-3M cells assessed as cell doubling measured for 72 hrs by DAPI staining based analysis; format: functional
[32] = system: MES-SA; experiment: Anticancer activity against human MES-SA cells assessed as cell doubling measured for 72 hrs by DAPI staining based analysis; format: functional
[33] = system: NCI-H2122; experiment: Anticancer activity against human NCI-H2122 cells assessed as cell doubling measured for 72 hrs by DAPI staining based analysis; format: functional
[34] = system: NCI-H2171; experiment: Anticancer activity against human NCI-H2171 cells assessed as cell doubling measured for 72 hrs by DAPI staining based analysis; format: functional
[35] = system: NCI-H295R; experiment: Anticancer activity against human NCI-H295R cells assessed as cell doubling measured for 72 hrs by DAPI staining based analysis; format: functional
[36] = system: NCI-H460; experiment: Anticancer activity against human NCI-H460 cells assessed as cell doubling measured for 72 hrs by DAPI staining based analysis; format: functional
[37] = system: NCI-H520; experiment: Anticancer activity against human NCI-H520 cells assessed as cell doubling measured for 72 hrs by DAPI staining based analysis; format: functional
[38] = system: NCI-H716; experiment: Anticancer activity against human NCI-H716 cells assessed as cell doubling measured for 72 hrs by DAPI staining based analysis; format: functional
[39] = system: RL; experiment: Anticancer activity against human RL cells assessed as cell doubling measured for 72 hrs by DAPI staining based analysis; format: functional
[40] = system: SK-MEL3; experiment: Anticancer activity against human SK-MEL3 cells assessed as cell doubling measured for 72 hrs by DAPI staining based analysis; format: functional
[41] = system: SNU-16; experiment: Anticancer activity against human SNU-16 cells assessed as cell doubling measured for 72 hrs by DAPI staining based analysis; format: functional
[42] = system: SW1088; experiment: Anticancer activity against human SW1088 cells assessed as cell doubling measured for 72 hrs by DAPI staining based analysis; format: functional
[43] = system: SW480; experiment: Anticancer activity against human SW480 cells assessed as cell doubling measured for 72 hrs by DAPI staining based analysis; format: functional
[44] = system: SW-620; experiment: Anticancer activity against human SW620 cells assessed as cell doubling measured for 72 hrs by DAPI staining based analysis; format: functional
[45] = system: SW948; experiment: Anticancer activity against human SW948 cells assessed as cell doubling measured for 72 hrs by DAPI staining based analysis; format: functional
[46] = Antitumor activity against human MV-522 cells in xenograft model assessed as difference between median time to endpoint time of treated versus control group at 62.5 mg/kg; format: functional
[47] = system: MX1; experiment: Antitumor activity against human MX1 cells in xenograft model assessed as difference between median time to endpoint time of treated versus control group at 62.5 mg/kg; format: functional

Chain of Centromere-associated protein E (Q02224 whole entry K184T): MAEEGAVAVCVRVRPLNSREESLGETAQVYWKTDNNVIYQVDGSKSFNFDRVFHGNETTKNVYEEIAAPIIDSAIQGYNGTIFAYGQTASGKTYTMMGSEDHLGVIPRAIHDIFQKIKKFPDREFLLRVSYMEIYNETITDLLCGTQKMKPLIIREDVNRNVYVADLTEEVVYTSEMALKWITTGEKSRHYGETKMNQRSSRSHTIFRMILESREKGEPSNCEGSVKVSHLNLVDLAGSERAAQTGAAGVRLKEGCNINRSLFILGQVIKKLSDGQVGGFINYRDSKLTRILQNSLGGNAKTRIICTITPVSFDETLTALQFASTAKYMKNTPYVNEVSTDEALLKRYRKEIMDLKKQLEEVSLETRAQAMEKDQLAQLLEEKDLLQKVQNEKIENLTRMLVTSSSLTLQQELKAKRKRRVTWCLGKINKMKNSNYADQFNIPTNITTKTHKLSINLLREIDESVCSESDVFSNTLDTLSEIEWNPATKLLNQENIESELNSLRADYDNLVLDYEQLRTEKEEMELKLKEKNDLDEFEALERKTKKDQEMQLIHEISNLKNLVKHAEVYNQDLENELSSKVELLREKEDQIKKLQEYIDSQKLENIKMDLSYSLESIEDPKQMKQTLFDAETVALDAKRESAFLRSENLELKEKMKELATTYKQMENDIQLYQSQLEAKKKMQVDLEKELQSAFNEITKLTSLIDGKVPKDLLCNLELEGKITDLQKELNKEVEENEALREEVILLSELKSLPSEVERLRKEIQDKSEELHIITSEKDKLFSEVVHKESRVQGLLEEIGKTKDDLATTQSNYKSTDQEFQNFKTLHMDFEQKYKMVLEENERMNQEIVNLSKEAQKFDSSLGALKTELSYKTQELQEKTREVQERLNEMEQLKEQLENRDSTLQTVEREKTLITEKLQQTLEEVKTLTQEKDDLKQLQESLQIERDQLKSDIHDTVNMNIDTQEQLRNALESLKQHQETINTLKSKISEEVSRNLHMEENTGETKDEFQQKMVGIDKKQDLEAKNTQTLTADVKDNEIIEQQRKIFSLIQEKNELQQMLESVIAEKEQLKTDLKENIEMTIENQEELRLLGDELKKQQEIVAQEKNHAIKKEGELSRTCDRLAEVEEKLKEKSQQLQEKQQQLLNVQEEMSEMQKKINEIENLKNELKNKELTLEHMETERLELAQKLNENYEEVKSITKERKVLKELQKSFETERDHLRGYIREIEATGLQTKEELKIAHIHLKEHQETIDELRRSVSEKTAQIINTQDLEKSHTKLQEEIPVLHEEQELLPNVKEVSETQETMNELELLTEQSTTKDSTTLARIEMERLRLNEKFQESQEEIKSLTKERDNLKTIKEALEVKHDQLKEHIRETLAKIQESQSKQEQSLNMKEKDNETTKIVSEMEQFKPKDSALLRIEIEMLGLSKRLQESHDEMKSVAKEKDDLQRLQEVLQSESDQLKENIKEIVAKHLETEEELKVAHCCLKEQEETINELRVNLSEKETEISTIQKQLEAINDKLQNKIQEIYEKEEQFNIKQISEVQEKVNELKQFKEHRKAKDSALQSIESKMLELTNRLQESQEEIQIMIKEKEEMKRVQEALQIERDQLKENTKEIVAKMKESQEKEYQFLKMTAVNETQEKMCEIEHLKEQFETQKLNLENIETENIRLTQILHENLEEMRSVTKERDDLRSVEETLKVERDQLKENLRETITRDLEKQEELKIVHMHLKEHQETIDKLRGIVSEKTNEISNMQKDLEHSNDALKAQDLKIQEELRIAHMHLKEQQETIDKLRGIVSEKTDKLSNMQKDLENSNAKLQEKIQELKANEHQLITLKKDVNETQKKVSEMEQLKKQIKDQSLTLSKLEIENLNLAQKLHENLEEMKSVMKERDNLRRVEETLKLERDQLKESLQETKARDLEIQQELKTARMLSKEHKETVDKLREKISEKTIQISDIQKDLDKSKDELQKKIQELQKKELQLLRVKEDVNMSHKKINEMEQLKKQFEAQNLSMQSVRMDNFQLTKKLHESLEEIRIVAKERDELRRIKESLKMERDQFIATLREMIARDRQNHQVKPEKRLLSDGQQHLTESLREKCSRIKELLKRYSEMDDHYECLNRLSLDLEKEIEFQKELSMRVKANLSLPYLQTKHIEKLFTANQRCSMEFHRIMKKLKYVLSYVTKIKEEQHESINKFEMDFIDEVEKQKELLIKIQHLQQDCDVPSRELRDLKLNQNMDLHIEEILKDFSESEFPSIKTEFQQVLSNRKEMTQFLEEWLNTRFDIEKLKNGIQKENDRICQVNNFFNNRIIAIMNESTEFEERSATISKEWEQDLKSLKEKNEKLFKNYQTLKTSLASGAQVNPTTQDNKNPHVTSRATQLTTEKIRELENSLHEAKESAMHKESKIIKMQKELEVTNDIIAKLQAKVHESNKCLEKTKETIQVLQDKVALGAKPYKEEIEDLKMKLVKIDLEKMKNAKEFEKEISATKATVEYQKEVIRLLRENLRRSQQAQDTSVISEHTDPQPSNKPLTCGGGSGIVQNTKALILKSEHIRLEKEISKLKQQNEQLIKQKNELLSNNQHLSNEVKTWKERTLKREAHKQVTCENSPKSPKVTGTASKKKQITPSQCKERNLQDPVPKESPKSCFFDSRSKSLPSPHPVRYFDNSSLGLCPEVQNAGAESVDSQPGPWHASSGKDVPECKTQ

What does the source list for `CC(C)Oc1ccc(C(=O)N[C@H](CNC(=O)CN(C)C)Cc2ccc(-c3cn4cccc([C@H](C)O)c4n3)cc2)cc1Cl` [GSK-923295A]?
Ki [1]: 12 nM; GI50 [2]: 27 nM; GI50 [3]: 27 nM; GI50 [4]: 27 nM; GI50 [5]: 25 nM; GI50 [6]: 88 nM; GI50 [7]: 47 nM; GI50 [8]: 29 nM; GI50 [9]: 36 nM; GI50 [10]: 32 nM; GI50 [11]: 31 nM; GI50 [12]: 26 nM; GI50 [13]: 44 nM; GI50 [14]: 60 nM; GI50 [15]: > 10000 nM; GI50 [16]: 33 nM; GI50 [17]: 22 nM; GI50 [18]: 45 nM; GI50 [19]: 26 nM; GI50 [20]: 23 nM; Activity [21]: 1.62; Activity [22]: 3.49; Activity [23]: 1.17; Activity [24]: 1.39; Activity [25]: 2.76; Activity [26]: 4.26; Activity [27]: 2.69; Activity [28]: 2.9; Activity [29]: 2.44; Activity [30]: 1.4; Activity [31]: 1.18; Activity [32]: 3.22; Activity [33]: 2.82; Activity [34]: 1.39; Activity [35]: 1.52; Activity [36]: 3.86; Activity [37]: 2.15; Activity [38]: 1.41; Activity [39]: 3.17; Activity [40]: 1.11; Activity [41]: 2.92; Activity [42]: 2.55; Activity [43]: 2.21; Activity [44]: 2.91; Activity [45]: 1.9; Time [46]: 12.5 days; Time [47]: 1.4 days

— ChEMBL document CHEMBL5705890, “Antitumor activity of an allosteric inhibitor of centromere-associated protein-E” (Proc Natl Acad Sci U S A, 2010)
